The results in this text go back to US20150157739A1, “Imidazo[2,1]thiazol-3-one derivatives” (Hoffmann-La Roche Inc., priority 2012, published 2015).

For orientation: IC50 means the concentration that gives 50% inhibition.

The target in experiment [1] is T1, aggregated recombinant human-microtubule associated protein Tau (Homo sapiens, UniProt P10636).
T1 construct: Recombinant human-microtubule associated protein Tau purified from E. coli is aggregated at a concentration of 5 μM with Arachidonic Acid (100 μM) in Tris 10 mM pH8, 24 h at 37° C
As to the kind of experiment: Thiazin-red R displacement fluorescence assay on aggregated Tau. It counts as binding. The following applies: displacement of Thiazin-red R from aggregated Tau; compound 0.3 nM to 10000 nM; 30 min room temperature; Ex 531 nm/Em 595 nm.

The target of experiment [2] is T2, aggregated synthetic Aβ40 (Homo sapiens, UniProt P05067).
T2 construct: Synthetic Aβ40 is aggregated at a concentration of 50 μM
As to the kind of experiment: Thiazin-red R displacement fluorescence assay on aggregated A-beta. It counts as binding. To be noted: displacement of Thiazin-red R from aggregated Aβ40; compound 0.3 nM to 10000 nM; 30 min room temperature; Ex 531 nm/Em 595 nm.

T1 sequence (P10636 whole entry): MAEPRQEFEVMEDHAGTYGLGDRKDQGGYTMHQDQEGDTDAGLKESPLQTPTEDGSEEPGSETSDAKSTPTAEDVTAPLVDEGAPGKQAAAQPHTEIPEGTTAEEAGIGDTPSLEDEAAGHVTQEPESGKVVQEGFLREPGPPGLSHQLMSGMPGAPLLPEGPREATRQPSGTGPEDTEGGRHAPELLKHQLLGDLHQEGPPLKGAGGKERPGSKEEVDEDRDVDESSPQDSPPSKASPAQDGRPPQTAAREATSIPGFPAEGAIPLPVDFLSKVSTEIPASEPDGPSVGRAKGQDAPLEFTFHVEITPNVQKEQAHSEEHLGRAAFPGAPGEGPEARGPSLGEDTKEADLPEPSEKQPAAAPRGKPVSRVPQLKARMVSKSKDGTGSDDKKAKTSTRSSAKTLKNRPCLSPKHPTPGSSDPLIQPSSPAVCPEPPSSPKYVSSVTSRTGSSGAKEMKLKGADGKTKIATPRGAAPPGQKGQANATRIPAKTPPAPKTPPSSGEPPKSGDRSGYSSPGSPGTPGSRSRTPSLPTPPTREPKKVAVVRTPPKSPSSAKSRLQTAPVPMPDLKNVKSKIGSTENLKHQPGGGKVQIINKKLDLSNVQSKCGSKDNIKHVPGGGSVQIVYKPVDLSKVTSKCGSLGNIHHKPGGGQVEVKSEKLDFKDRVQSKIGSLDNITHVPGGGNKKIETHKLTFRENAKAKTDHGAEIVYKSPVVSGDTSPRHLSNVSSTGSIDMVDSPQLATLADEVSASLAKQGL
T2 sequence (P05067 672-711 limits assumed): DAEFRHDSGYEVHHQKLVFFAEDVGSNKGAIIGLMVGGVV

For `COc1cc(/C=c2\sc3nc(-c4c(F)cccc4F)cn3c2=O)cc(Cl)c1O` [Example 105, 2-[1-(3-Chloro-4-hydroxy-5-methoxy-phenyl)-meth-(Z)-ylidene]-6-(2,6-difluoro-phenyl)-imidazo[2,1-b]thiazol-3-one], the IC50 in experiment [1] stood at 13 nM; in experiment [2], 5550 nM.

In the case of `COc1cc(/C=c2\sc3nc(-c4cccc(C(=O)NCCF)c4)cn3c2=O)cc(Cl)c1O` [Example 106, 3-{2-[1-(3-Chloro-4-hydroxy-5-methoxy-phenyl)-meth-(Z)-ylidene]-3-oxo-2,3-dihydro-imidazo[2,1-b]thiazol-6-yl}-N-(2-fluoro-ethyl)-benzamide], the IC50 amounted to 8 nM in experiment [1] and 1080 nM in experiment [2].

As to `CCCNC(=O)c1cccc(-c2cn3c(=O)/c(=C/c4cc(Cl)c(O)c(OC)c4)sc3n2)c1` [Example 107, 3-{2-[1-(3-Chloro-4-hydroxy-5-methoxy-phenyl)-meth-(Z)-ylidene]-3-oxo-2,3-dihydro-imidazo[2,1-b]thiazol-6-yl}-N-propyl-benzamide], the IC50 was found to be 3 nM in experiment [1] and 2630 nM in experiment [2].

As for `CNC(=O)c1cccc(-c2cn3c(=O)/c(=C/c4cc(Cl)c(O)c(OC)c4)sc3n2)c1` [Example 108, 3-{2-[1-(3-Chloro-4-hydroxy-5-methoxy-phenyl)-meth-(Z)-ylidene]-3-oxo-2,3-dihydro-imidazo[2,1-b]thiazol-6-yl}-N-methyl-benzamide], the IC50 in experiment [1] came to 4 nM; in experiment [2] it was 395 nM.

Take `CCCOc1cc(/C=c2\sc3nc(-c4cnccc4C)cn3c2=O)cc(Cl)c1O` [Example 109, 2-[1-(3-Chloro-4-hydroxy-5-propoxy-phenyl)-meth-(Z)-ylidene]-6-(4-methyl-pyridin-3-yl)-imidazo[2,1-b]thiazol-3-one]: the IC50 in experiment [1] is 33 nM; in experiment [2], 4920 nM.

As for `CCCOc1cc(/C=c2\sc3nc(-c4cccnc4)cn3c2=O)cc(Cl)c1O` [Example 110, 2-[1-(3-Chloro-4-hydroxy-5-propoxy-phenyl)-meth-(Z)-ylidene]-6-pyridin-3-yl-imidazo[2,1-b]thiazol-3-one], the values for the IC50 in experiment [1] and in experiment [2] were 17 nM and 425 nM, respectively.

As to `CCCOc1cc(/C=c2\sc3nc(-c4ccncc4)cn3c2=O)cc(Cl)c1O` [Example 111, 2-[1-(3-Chloro-4-hydroxy-5-propoxy-phenyl)-meth-(Z)-ylidene]-6-pyridin-4-yl-imidazo[2,1-b]thiazol-3-one], the half-inhibitory concentration (IC50) in experiment [1] worked out at 17 nM; in experiment [2] it was 1450 nM.

In the case of `CCCOc1cc(/C=c2\sc3nc(-c4ccc(-n5cnc(C)c5)nc4)cn3c2=O)cc(Cl)c1O` [Example 112, 2-[1-(3-Chloro-4-hydroxy-5-propoxy-phenyl)-meth-(Z)-ylidene]-6-[6-(4-methyl-imidazol-1-yl)-pyridin-3-yl]-imidazo[2,1-b]thiazol-3-one], the IC50 in experiment [1] turned out to be 8 nM; in experiment [2] it was 493 nM.

As for `C=CCNC(=O)c1cccc(-c2cn3c(=O)/c(=C/c4cc(Cl)c(O)c(OC)c4)sc3n2)c1` [Example 113, N-Allyl-3-{2-[1-(3-chloro-4-hydroxy-5-methoxy-phenyl)-meth-(Z)-ylidene]-3-oxo-2,3-dihydro-imidazo[2,1-b]thiazol-6-yl}-benzamide], the IC50 in experiment [1] was found to be 16 nM; in experiment [2] it was 1160 nM.

As for `CNC(=O)c1ccc(-c2cn3c(=O)/c(=C/c4cc(Cl)c(O)c(OC)c4)sc3n2)cc1` [Example 114, 4-{2-[1-(3-Chloro-4-hydroxy-5-methoxy-phenyl)-meth-(Z)-ylidene]-3-oxo-2,3-dihydro-imidazo[2,1-b]thiazol-6-yl}-N-methyl-benzamide], the values for the IC50 in experiment [1] and in experiment [2] were 6 nM and 352 nM, respectively.

As for `CCCNC(=O)c1ccc(-c2cn3c(=O)/c(=C/c4cc(Cl)c(O)c(OC)c4)sc3n2)cc1` [Example 115, 4-{2-[1-(3-Chloro-4-hydroxy-5-methoxy-phenyl)-meth-(Z)-ylidene]-3-oxo-2,3-dihydro-imidazo[2,1-b]thiazol-6-yl}-N-propyl-benzamide], the IC50 came out at 2 nM in experiment [1] and 356 nM in experiment [2].

As for `COc1cc(/C=c2\sc3nc(-c4ccc(C(=O)NCCF)cc4)cn3c2=O)cc(Cl)c1O` [Example 116, 4-{2-[1-(3-Chloro-4-hydroxy-5-methoxy-phenyl)-meth-(Z)-ylidene]-3-oxo-2,3-dihydro-imidazo[2,1-b]thiazol-6-yl}-N-(2-fluoro-ethyl)-benzamide], the IC50 was 3 nM in experiment [1] and 820 nM in experiment [2].

Turning to `COc1cc(/C=c2\sc3nc(-c4ccc(C(=O)NCCCF)cc4)cn3c2=O)cc(Cl)c1O` [Example 117, 4-{2-[1-(3-Chloro-4-hydroxy-5-methoxy-phenyl)-meth-(Z)-ylidene]-3-oxo-2,3-dihydro-imidazo[2,1-b]thiazol-6-yl}-N-(3-fluoro-propyl)-benzamide], the IC50 in experiment [1] was determined as 5 nM; in experiment [2], 643 nM.

`COc1cc(/C=c2\sc3nc(-c4cccc(C(=O)N(C)CCc5cccc(F)c5)c4)cn3c2=O)cc(Cl)c1O` [Example 118, 3-{2-[1-(3-Chloro-4-hydroxy-5-methoxy-phenyl)-meth-(Z)-ylidene]-3-oxo-2,3-dihydro-imidazo[2,1-b]thiazol-6-yl}-N-[2-(3-fluoro-phenyl)-ethyl]-N-methyl-benzamide]: the figures for the IC50 in experiment [1] and in experiment [2] were 12.9 nM and over 10000 nM, respectively.

Consider `CCCOc1cc(/C=c2\sc3nc(-c4cnc[nH]4)cn3c2=O)cc(Cl)c1O` [Example 119, 2-[1-(3-Chloro-4-hydroxy-5-propoxy-phenyl)-meth-(Z)-ylidene]-6-(3H-imidazol-4-yl)-imidazo[2,1-b]thiazol-3-one], for which the IC50 amounted to 60 nM in experiment [1] and 3120 nM in experiment [2].

For the compound `COc1cc(/C=c2\sc3nc(-c4cccc(C(N)=O)c4)cn3c2=O)cc(F)c1O` [Example 121, 3-{2-[1-(3-Fluoro-4-hydroxy-5-methoxy-phenyl)-meth-(Z)-ylidene]-3-oxo-2,3-dihydro-imidazo[2,1-b]thiazol-6-yl}-benzamide], the half-maximal inhibitory concentration (IC50) is 19 nM in experiment [1] and 591 nM in experiment [2].

As to `CCCOc1cc(/C=c2\sc3nc(-c4ccncc4)cn3c2=O)cc(F)c1O` [Example 122, 2-[1-(3-Fluoro-4-hydroxy-5-propoxy-phenyl)-meth-(Z)-ylidene]-6-pyridin-4-yl-imidazo[2,1-b]thiazol-3-one], the IC50 in experiment [1] was determined as 23.5 nM; in experiment [2] it was 2670 nM.

As to `O=c1/c(=C/c2cc(Cl)c(O)c(OCCCF)c2)sc2nc(-c3ccncc3)cn12` [Example 123, 2-[1-(3-Chloro-5-(3-fluoropropoxy)-4-hydroxy-phenyl)-meth-(Z)-ylidene]-6-pyridin-4-yl-imidazo[2,1-b]thiazol-3-one], the IC50 was found to be 12 nM in experiment [1] and 1060 nM in experiment [2].

For the compound `O=c1/c(=C/c2cc(F)c(O)c(OCCCF)c2)sc2nc(-c3ccncc3)cn12` [Example 124, 2-[1-(3-Fluoro-5-(3-fluoropropoxy)-4-hydroxy-phenyl)-meth-(Z)-ylidene]-6-pyridin-4-yl-imidazo[2,1-b]thiazol-3-one], the results for the half-maximal inhibitory concentration (IC50) in experiment [1] and in experiment [2] were 17 nM and 1230 nM, respectively.

In the case of `COc1cc(/C=c2\sc3nc(-c4ccc(C(=O)N(C)CCF)cc4)cn3c2=O)cc(Cl)c1O` [Example 125, 4-{2-[1-(3-Chloro-4-hydroxy-5-methoxy-phenyl)-meth-(Z)-ylidene]-3-oxo-2,3-dihydro-imidazo[2,1-b]thiazol-6-yl}-N-(2-fluoro-ethyl)-N-methyl-benzamide], the IC50 in experiment [1] stood at 17 nM; in experiment [2] it was 621 nM.
